Results on 24 molecules are retold here after PubChem BioAssay (NCI).

Among the test systems are LXFL 529 NSCLC; DMS 273 small cell lung; RXF-631 renal; XF 498 CNS; MCF7 breast; NCI/ADR-RES ovarian; MDA-MB-435; MDA-N; T-47D breast.
Holding throughout (assay): DTP human tumour cell line panel, 48 h

Where “and” joins values, the source holds several entries; their conditions need not be identical. Equal entries are not always repeated.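 Cultured in 96-well plates, cells were exposed to test compound for 48 hours across five concentrations. GI50 marks 50% less growth. TGI: concentration producing complete growth inhibition.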 Some results are limits rather than exact numbers.

For orientation: TGI means the concentration at which net growth stops. A lower TGI goes with more potent growth arrest. On to `Oc1cc(C2OCCCO2)cc(O)c1O`, for which the TGI with LXFL 529 NSCLC, in the test with DMS 273 small cell lung and in the test with RXF-631 renal was above 100 µM in each case.

As for `COC(=O)/C(C=O)=C/Sc1ccccc1`, the TGI in the test on LXFL 529 NSCLC is 78.9 µM; in the test on DMS 273 small cell lung it was 53.2 µM; in the test on RXF-631 renal it was 45.7 µM; in the test with XF 498 CNS, above 100 µM.

Regarding `COC(=O)CCC(=O)CC1CC(=O)C2CCCN12` (centres undefined), the TGI with LXFL 529 NSCLC, with DMS 273 small cell lung and in the test with XF 498 CNS was above 100 µM throughout.

By GI50 is commonly meant the concentration at which growth is held to half of that of the control. With `[Au+].[Au+].[Au+].[c-]1nccn1Cc1ccccc1.[c-]1nccn1Cc1ccccc1.[c-]1nccn1Cc1ccccc1`, the GI50 was 10.7 µM in the test on MCF7 breast; 1.83 µM in the test on LXFL 529 NSCLC; 58 µM in the test with NCI/ADR-RES ovarian; 11.4 µM in the test on MDA-MB-435; 1.66 µM with DMS 273 small cell lung; 11.2 µM with MDA-N. Besides, the GI50 with XF 498 CNS was 1.74 µM; with T-47D breast it was 7.42 µM. Also, the concentration for total growth inhibition (TGI) in the test on MCF7 breast was 39 µM; in the test on LXFL 529 NSCLC, 3.22 µM; with NCI/ADR-RES ovarian, above 100 µM; in the test with MDA-MB-435, 34.2 µM; in the test on DMS 273 small cell lung, 3.23 µM; in the test on MDA-N, 26.6 µM. The total growth inhibition concentration (TGI) with XF 498 CNS was found to be 3.13 µM; in the test on T-47D breast, 36.8 µM.

As for `COC(=O)/C(C)=C/[N+](=O)[O-]`, the TGI in the test with LXFL 529 NSCLC was determined as 27.9 µM; with DMS 273 small cell lung, 34.6 µM; in the test on XF 498 CNS, 27.5 µM.

Regarding `O=c1[nH]c2cc(Cl)ccc2nc1/C(=N\O)C(O)c1ccc(Cl)cc1Cl` (centres undefined), the concentration for total growth inhibition (TGI) with LXFL 529 NSCLC, in the test with DMS 273 small cell lung, with RXF-631 renal and with XF 498 CNS was above 100 µM in each case.

Regarding `COC(=O)/C(C#N)=C1\CCC(O)N1` (centres undefined), the total growth inhibition concentration (TGI) in the test on LXFL 529 NSCLC, in the test on DMS 273 small cell lung and in the test with XF 498 CNS was above 100 µM throughout.

For the molecule `CC1=NN(C(=O)CC(=O)N(C(=O)c2ccccc2Cl)c2ccc(C)cc2)C(=O)C1N=Nc1ccc([N+](=O)[O-])cc1` (centres undefined), the results for the concentration for total growth inhibition (TGI) with LXFL 529 NSCLC, in the test on DMS 273 small cell lung and in the test with XF 498 CNS were above 100 µM, above 95.7 µM and above 100 µM, respectively.

Turning to `COc1cccc(-n2c3nc(=O)n(C)c(=O)c-3nc3ccccc32)c1`, the TGI with LXFL 529 NSCLC turned out to be 81.8 µM; in the test with DMS 273 small cell lung, 30.9 µM; in the test with RXF-631 renal it was 76.7 µM; in the test on XF 498 CNS, 42.7 µM.

Consider `COC(=O)OCC1OC(N2C(=O)NC(=O)C(Br)C2N=[N+]=[N-])CC1OC(=O)OC` (centres undefined), for which the TGI in the test on LXFL 529 NSCLC, in the test with DMS 273 small cell lung and in the test on XF 498 CNS was above 100 µM in each case.

`C[C@@]12CCCc3coc(c31)C(=O)c1cc3c(cc12)C(=O)C=CC3=O`: the GI50 in the test on LXFL 529 NSCLC and with XF 498 CNS was above 1 µM throughout. Also, the TGI was > 1 µM and 28.2 µM in the test on LXFL 529 NSCLC; above 1 µM in the test on DMS 273 small cell lung; > 1 µM and 29.6 µM in the test with XF 498 CNS.

Regarding `COc1cc2ccc3c4cc(OC)c(OC(C)C)cc4cnc3c2cc1OC`, the TGI in the test on LXFL 529 NSCLC and in the test on RXF-631 renal was above 100 µM each time.

As for `O=C1c2ccc3c4ccccc4n(Cc4ccccc4)c3c2C(=O)N1c1ccccc1`, the results for the TGI in the test with LXFL 529 NSCLC, in the test with DMS 273 small cell lung and in the test on RXF-631 renal were 27.7 µM, 24.9 µM and 36.4 µM, respectively.

`O=C(Nc1cc(Cl)ccc1Cl)C(=O)C(c1cnc2ccccc2n1)[N+](=O)[O-]` (centres undefined): the TGI in the test on LXFL 529 NSCLC, with RXF-631 renal and in the test on XF 498 CNS was above 100 µM each time.

`Cc1ccc(C2(O)CC(c3ccc([N+](=O)[O-])o3)=NN2C(=O)COc2ccc(Cl)cc2)cc1` (centres undefined): the TGI in the test with LXFL 529 NSCLC was 10.9 µM; in the test on DMS 273 small cell lung it was above 62.1 µM; with XF 498 CNS, 26.9 µM.

Regarding `CCOC(=N)CC(=O)Nc1cccc(C)c1C`, the TGI in the test on LXFL 529 NSCLC, in the test with DMS 273 small cell lung, in the test on RXF-631 renal and with XF 498 CNS was above 100 µM in each case.

Regarding `Cc1cc(NS(=O)(=O)c2ccc(Nc3c4ccccc4nc4c(C(=O)NCCN(C)C)cccc34)cc2)no1`, the TGI in the test with LXFL 529 NSCLC, in the test with DMS 273 small cell lung and with XF 498 CNS was above 100 µM throughout.

In the case of `C=CCNC(=O)N(CCC)CCCCC(NC(C)=O)C(=O)NCc1ccccc1` (centres undefined), the TGI with LXFL 529 NSCLC, with DMS 273 small cell lung and in the test with XF 498 CNS was above 100 µM each time.

As to `CN[C@@H](C)[C@H](NC)c1ccccc1`, the TGI in the test with LXFL 529 NSCLC, with DMS 273 small cell lung and in the test on RXF-631 renal was above 100 µM in each case.

On to `COc1ccc(C2c3cc(OC)c(OC)cc3C(Cc3ccc([N+](=O)[O-])cc3)C2c2ccc([N+](=O)[O-])cc2)cc1OC` (centres undefined), for which the TGI in the test on LXFL 529 NSCLC, with DMS 273 small cell lung, with RXF-631 renal and with XF 498 CNS was above 100 µM throughout.

For the molecule `CC12CCCCC1(C)C2Sc1ccccc1` (centres undefined), the TGI with LXFL 529 NSCLC was above 100 µM; in the test on DMS 273 small cell lung it was above 100 µM; in the test with RXF-631 renal, above 100 µM; with XF 498 CNS, 66.3 µM.

With `COc1cc(C)c2c(c1C)OC(=O)c1c(C)c(Cl)c(O)c(C=O)c1O2`, the TGI in the test with LXFL 529 NSCLC was found to be 43.3 µM; in the test with DMS 273 small cell lung it was 37.2 µM; in the test on RXF-631 renal, 57.1 µM; in the test on XF 498 CNS, 49.5 µM.

Regarding `CC1(C)O/C(=C\c2ccccc2)C(=O)/C(=C/c2ccccc2)O1`, the TGI was above 100 µM with LXFL 529 NSCLC, above 100 µM in the test with DMS 273 small cell lung, above 100 µM with RXF-631 renal and 54.4 µM in the test with XF 498 CNS.

As for `CC(C)CCCC(C)[C@H]1CCC2[C@H]3C(CC[C@@]21C)[C@@]1(C)CCC=C[C@]12C[C@@H]2[C@@H]3O` (some centres undefined), the total growth inhibition concentration (TGI) in the test with LXFL 529 NSCLC, in the test on DMS 273 small cell lung and in the test on RXF-631 renal was above 100 µM each time.
